In patent US5081242A, “6-benzoxazinyl- and 6-benzothiazinyl 2,3,4,5-tetrahydropyridazin-3-ones” (Ortho Pharmaceutical Corporation, priority 1991, dated 1992) one finds change in vivo and IC50 data, which are given here for 24 molecules.

pIC50: −log10 of the molar value.

One experiment deals with adult mongrel dogs. Put plainly: Cardiotonic activity in anesthetized dogs (myocardial contractile force, i.v.). In kind it is in vivo. To be noted: Canis lupus familiaris, iv, vs pretreatment control, read-out: CF: Percent increase in cardiac force; for change in vivo at 1.87 mg/kg: i.v. dose 1.87 mpk; for change in vivo at 0.47 mg/kg: i.v. dose 0.47 mpk. On the procedure: The cardiotonic activity of the compounds was determined in accordance with the method of Alousi, A. A., et al., J. Cir. Res. 45, 666 (1979). Basically, adult mongrel dogs were anesthetized with sodium pentobarbital and artificially respired. Arterial pressure was recorded via a femoral artery and the pressure pulse used to trigger a cardiotachometer for heart rate. Left ventricular pressure was measured with a Millar catheter and dP/dt was derived. Cardiac output was determined by measuring ascending aortic blood flow with an electromagnetic flow probe and myocardial contractile force was measured with a Walton Brodie strain gauge sutured to the right ventricle. Lead II EKG was also recorded. A standard does of dopamine was administered to assess myocardial responsiveness. Test compounds were administered by i.v. infusion or bolus administration and the effects on cardiovascular parameters were determined. Dose-related effects of the test compound on BP, HR, dP/dt max., C.F. and C.O. were compared to pretreatment control values and expressed as a percentage change.

Experiment [1] has as its target cyclic nucleotide phosphodiesterase. Kind of experiment: Phosphodiesterase inhibitory activity (cyclic AMP hydrolysis). In kind it is biochemical. Particulars: read-out: IC50 (50% inhibition of cyclic nucleotide phosphodiesterase activity); cyclic AMP 0.10-1.0 μM, pH 7.4.

As for `CC1CC(=O)NN=C1c1ccc2c(c1)NCCO2` (racemic) [Example 15, 6-(3,4-Dihydro-1,4(2H)-benzoxazin-6-yl)-2,3,4,5-tetrahydro-5-methylpyridazin-3-one], in the experiment with adult mongrel dogs, the change in vivo at 1.87 mg/kg turned out to be 125%. The pIC50 in experiment [1] was 5.10.

For `CC(=O)N1CCOc2ccc(C3=NNC(=O)CC3C)cc21` (racemic) [Example 16, 6-(4-Acetyl-3,4-dihydro-1,4(2H)-benzoxazin-6-yl)-2,3,4,5-tetrahydro-5-methylpyridazin-3-one], the change in vivo at 1.87 mg/kg with adult mongrel dogs was found to be 173%. For the same molecule, in experiment [1], the negative-log IC50 (pIC50) is 4.52.

For the molecule `CC1CC(=O)NN=C1c1ccc2c(c1)N(S(C)(=O)=O)CCO2` (racemic) [Example 17, 6-(3,4-Dihydro-4-methanesulfonyl-1,4(2H)-benzoxazin-6-yl)-2,3,4,5-tetrahydro-5-methylpyridazin-3-one], the change in vivo at 1.87 mg/kg in the experiment on adult mongrel dogs was 62%. Further, the pIC50 in experiment [1] was 5.40.

`CC1CNc2cc(C3=NNC(=O)CC3)ccc2O1` (racemic) [Example 18, 6-(3,4-Dihydro-2-methyl-1,4(2H)-benzoxazin-6-yl)-2,3,4,5-tetrahydropyridazin-3-one]: the change in vivo at 0.47 mg/kg in the experiment with adult mongrel dogs is 50%. In addition, the negative-log IC50 (pIC50) in experiment [1] is 5.10.

With `CC1CC(=O)NN=C1c1ccc2c(c1)NC(=O)CO2` (racemic) [Example 22, 6-(3,4-Dihydro-3-oxo-1,4(2H)-benzoxazin-6-yl)-2,3,4,5-tetrahydro-5-methylpyridazin-3-one], in the experiment on adult mongrel dogs, the change in vivo at 0.47 mg/kg was determined as 136%. In addition, in experiment [1], the pIC50 was 5.70.

Take `CC1CC(=O)NN=C1c1ccc2c(c1)N(C)C(=O)CO2` (racemic) [Example 23, 6-(3,4-Dihydro-4-methyl-3-oxo-1,4(2H)-benzoxazin-6-yl)-2,3,4,5-tetrahydro-5-methylpyridazin-3-one]: the change in vivo at 0.47 mg/kg with adult mongrel dogs worked out at 134%. In addition, in experiment [1], the negative-log IC50 (pIC50) was 5.10.

As to `CC1Oc2ccc(C3=NNC(=O)CC3)cc2NC1=O` (racemic) [Example 24, 6-(3,4-Dihydro-2-methyl-3-oxo-1,4(2H)-benzoxazin-6-yl)-2,3,4,5-tetrahydropyridazin-3-one], the change in vivo at 0.47 mg/kg with adult mongrel dogs came to 54%. Also, the pIC50 in experiment [1] was 4.85.

For `CC1Oc2ccc(C3=NNC(=O)CC3)cc2N(C)C1=O` (racemic) [Example 25, 6-(3,4-Dihydro-2,4-dimethyl-3-oxo-1,4(2H)-benzoxazin-6-yl)-2,3,4,5-tetrahydropyridazin-3-one], the change in vivo at 0.47 mg/kg in the experiment on adult mongrel dogs amounted to 31%. Further, the pIC50 in experiment [1] is 4.89.

Consider `Cc1cc2c(cc1C1=NNC(=O)CC1C)NC(=O)CO2` (racemic) [Example 30, 6-(3,4-Dihydro-7-methyl-3-oxo-1,4(2H)-benzoxazin-6-yl)-2,3,4,5-tetrahydro-5-methylpyridazin-3-one], for which the change in vivo at 0.47 mg/kg in the experiment on adult mongrel dogs was 124%. For the same molecule, the negative logarithm of the IC50 (pIC50) in experiment [1] was 4.70.

In the case of `Cc1cc2c(cc1C1=NNC(=O)CC1C)N(C)C(=O)CO2` (racemic) [Example 31, 6-(3,4-Dihydro-4,7-dimethyl-3-oxo-1,4(2H)-benzoxazin-6-yl)-2,3,4,5-tetrahydro-5-methylpyridazin-3-one], the change in vivo at 0.47 mg/kg with adult mongrel dogs was 33%. Also, the negative logarithm of the IC50 (pIC50) in experiment [1] is 4.42.

On to `Cc1cc2c(cc1C1=NNC(=O)CC1)N(C)C(=O)C(C)O2` (racemic) [Example 33, 6-(3,4-Dihydro-2,4,7-trimethyl-3-oxo-1,4(2H)-benzoxazin-6-yl)-2,3,4,5-tetrahydropyridazin-3-one], for which the change in vivo at 0.47 mg/kg with adult mongrel dogs came out at 8%. The pIC50 in experiment [1] was 4.52.

Take `CC1CC(=O)NN=C1c1ccc2c(c1)OCC(=O)N2` (racemic) [Example 46, 6-(3,4-Dihydro-3-oxo-1,4(2H)-benzoxazin-7-yl)-2,3,4,5-tetrahydro-5-methylpyridazin-3-one]: the change in vivo at 0.075 mg/kg with adult mongrel dogs (i.v. dose 0.075 mpk) was 130%. The pIC50 in experiment [1] is 6.52.

As for `CS(=O)(=O)N1CCOc2ccc(C3=NNC(=O)CC3)cc21` [Example 8, 6-(3,4-Dihydro-4-methanesulfonyl-1,4(2H)-benzoxazin-6-yl)-2,3,4,5-tetrahydropyridazin-3-one], the change in vivo at 1.87 mg/kg with adult mongrel dogs worked out at 98%. The pIC50 in experiment [1] is 5.02.

`CN1N=C(c2ccc3c(c2)N(S(C)(=O)=O)CCO3)CCC1=O` [Example 9, 6-(3,4-Dihydro-4-methanesulfonyl-1,4(2H)-benzoxazin-6-yl)-2,3,4,5-tetrahydro-2-methylpyridazin-3-one]: the change in vivo at 1.87 mg/kg with adult mongrel dogs was 62%. In addition, in experiment [1], the pIC50 was 4.00.

As for `CCCCCN1N=C(c2ccc3c(c2)N(S(C)(=O)=O)CCO3)CCC1=O` [Example 10, 6-(3,4-Dihydro-4-methanesulfonyl-1,4(2H)-benzoxazin-6-yl)-2,3,4,5-tetrahydro-2-pentylpyridazin-3-one], in the experiment on adult mongrel dogs, the change in vivo at 1.87 mg/kg was 18%.

On to `C=CCN1N=C(c2ccc3c(c2)N(S(C)(=O)=O)CCO3)CCC1=O` [Example 11, 6-(3,4-Dihydro-4-methanesulfonyl-1,4(2H)-benzoxazin-6-yl)-2,3,4,5-tetrahydro-2-(2-propenyl)pyridazin-3-one], for which the change in vivo at 1.87 mg/kg with adult mongrel dogs came out at 41%.

Regarding `O=C1CCC(c2ccc3c(c2)NCCO3)=NN1` [Example 12, 6-(3,4-Dihydro-1,4(2H)-benzoxazin-6-yl)-2,3,4,5-tetrahydropyridazin-3-one], in the experiment with adult mongrel dogs, the change in vivo at 1.87 mg/kg is 92%.

As for `CC(=O)N1CCOc2ccc(C3=NNC(=O)CC3)cc21` [Example 13, 6-(4-Acetyl-3,4-dihydro-1,4(2H)-benzoxazin-6-yl)-2,3,4,5-tetrahydropyridazin-3-one], in the experiment on adult mongrel dogs, the change in vivo at 1.87 mg/kg is 71%. Besides, the negative logarithm of the IC50 (pIC50) in experiment [1] is 4.00.

With `COc1ccc(C(=O)N2CCOc3ccc(C4=NNC(=O)CC4)cc32)cc1OC` [Example 14, 6-(3,4-Dihydro-4-(3,4-dimethoxyphenylcarbonyl)-1,4(2H)-benzoxazin-6-yl)-2,3,4,5-tetrahydropyridazin-3-one], in the experiment on adult mongrel dogs, the change in vivo at 1.87 mg/kg came out at 30%. Besides, the negative-log IC50 (pIC50) in experiment [1] was 4.10.

Turning to `CC1CNc2cc(C3=NNC(=O)CC3C)ccc2O1` (centres unmarked) [Example 19, 6-(3,4-Dihydro-2-methyl-1,4(2H)-benzoxazin-6-yl)-2,3,4,5-tetrahydro-5-methylpyridazin-3-one], the change in vivo at 0.47 mg/kg in the experiment with adult mongrel dogs worked out at 98%. Moreover, the pIC50 in experiment [1] is 4.40.

For `O=C1CCC(c2ccc3c(c2)NC(=O)CO3)=NN1` [Example 20, 6-(3,4-Dihydro-3-oxo-1,4(2H)-benzoxazin-6-yl)-2,3,4,5-tetrahydropyridazin-3-one], the change in vivo at 1.87 mg/kg with adult mongrel dogs was 71%. In experiment [1], the negative logarithm of the IC50 (pIC50) was 3.20.

Regarding `CN1C(=O)COc2ccc(C3=NNC(=O)CC3)cc21` [Example 21, 6-(3,4-Dihydro-4-methyl-3-oxo-1,4(2H)-benzoxazin-6-yl)-2,3,4,5-tetrahydropyridazin-3-one], in the experiment with adult mongrel dogs, the change in vivo at 0.47 mg/kg came to 74%. Moreover, the pIC50 in experiment [1] is 4.74.

For the molecule `CC1CC(=O)NN=C1c1ccc2c(c1)NC(=O)C(C)O2` (centres unmarked) [Example 26, 6-(3,4-Dihydro-2-methyl-3-oxo-1,4(2H)-benzoxazin-6-yl)-2,3,4,5-tetrahydro-5-methylpyridazin-3-one], the change in vivo at 0.47 mg/kg with adult mongrel dogs amounted to 156%. Also, the negative-log IC50 (pIC50) in experiment [1] is 5.30.

`Cc1cc2c(c(C3=NNC(=O)CC3C)c1)OCCN2` (centres unmarked) [Example 42, 6-(3,4-Dihydro-6-methyl-1,4(2H)-benzoxazin-8-yl)-2,3,4,5-tetrahydro-5-methylpyridazin-3-one]: the change in vivo at 0.47 mg/kg in the experiment on adult mongrel dogs worked out at 15%.

What is called pIC50 is the negative decadic logarithm of the IC50, by convention in mol/L.
